Where two headings read alike, the source gives them in different places.
Target: T1, HIV-1 protease (Human immunodeficiency virus type 1 group M subtype B, UniProt P04585)
T1 construct: Purified HIV-1 protease was obtained as described below; made in house; host or cells: E. coli K12 L507/pHP10D (NRRL B-18560)
Test: biochemical
Conditions: read-out: Fluorescence Assay IC50 (converted)
Experimental: N^α -Biotin-[…]Ne-FITC)-OH
The purified peptide was labeled as follows with a fluorescent marker at the C-terminal end for use in the assay. N^α -Biotin-Gly-Ser-Gln-Asn-Tyr-Pro-lle-Val-Gly-Lys-OH (1.206 g, 0.936 mmoles) was dissolved in 100 mL of 0.1M sodium borate, pH 9.5 with stirring. Then, 3 g of fluorescein isothiocyanate (7.7 mmol) was dissolved in 15 mL dimethyl sulfoxide and the solution added to the reaction in 10 equal portions over the course of a two hour period. The reaction was allowed to proceed for a further one hour after the final addition had been made. The pH of the solution was adjusted to 3 with 5N HCl. A precipitate formed which was removed from the reaction by centrifugation.
Fluorescence HIV-1 Protease Inhibitor Assay Procedure.
To each well of a round bottom, 96-well plate is added 20 μl of the Enzyme Solution followed by 10 μl of the compound to be evaluated in 20% aqueous DMSO. Purified HIV-1 protease was obtained as described below. The solution is incubated for one hour at room temperature and then 20 μl of a solution of the substrate N^α -Biotin-[…]N^e -FITC)-OH, in MES-ALB buffer (1.5 μl/ml) is added to each well. The solutions are incubated for 16 hours at room temperature and thereafter to each well is added 150 μl of MES-ALB buffer.
To each well of a 96-well Pandex plate is added 25 μl of the Avidin Coated Beads Solution. Next, 25 μl of the diluted incubation solutions, described above, are added to each well of the Pandex plate. The solutions are mixed well and the plates are loaded into a Pandex® machine, washed, evacuated and read. Sample detection was performed by excitation at 485 nm and reading the resulting epifluorescence at 535 nm.
A culture of E. coli K12 L507/pHP10D was grown to mid-log phase at 32° C. in LB media containing 12.5 μg/ml tetracycline. The cultivation temperature was quickly elevated to 40° C. to induce gene expression, and the cells were allowed to grow for 2.5 hours at this temperature before the culture was quickly chilled on ice. The cells were centrifuged and the cell pellet was resuspended in 20 ml 50 mmol MES buffer (pH 6.0) containing 1 mmol EDTA, 1 mmol DTT, 1 mmol PMSF, and 10% glycerol (Buffer A). Cells were lysed by sonication using a Fischer Model 300 Dismembrator and a microtip probe. […] Enzymatic activity was measured by HPLC using the synthetic peptide SQNYPIV as described in Margolin et al., Biochem. Biophys. Res. Commun., 167, 554-560 (1990); the production of the pl peptide (SQNY) was measured.
Active fractions were pooled, made 1.2M in ammonium sulfate, and applied to a hexyl agarose column (2.0×18 cm) equilibrated in Buffer A containing 1.2M ammonium sulfate. The sample, in 125 ml (1.85 mg/ml), was loaded at a flow rate of 1 ml/min at 4° C. […] The column was then washed isocratically in Buffer A for 120 min. Active fractions were pooled, concentrated to 10 ml using an Amicon stirred cell with a YM-10 membrane, and applied at 1 ml/min to a MonoS cation exchange column (1.0×10 cm) equilibrated in Buffer A. After washing isocratically for 30 min, protease was eluted using a linear gradient of 0-0.45M NaCl in Buffer A over 40 min followed by an isocratic wash with Buffer A containing 0.45M NaCl over 30 min. Chromatography was performed at 25° C.
Pooled active fractions were concentrated to 200 ul using an Amicon stirred cell and a YM-10 membrane, and the protease was then applied to a Superose 6 size exclusion column equilibrated in Buffer A containing 0.1M NaCl. The column was washed isocratically in this buffer at a flow rate of 0.5 ml/min.

[1] = purified HIV-1 protease, MES-ALB buffer pH 5.5, 1 h preincubation, 16 h with substrate, room temperature, IC50 values for Examples 2-70 are standardized relative to Ex 1

| IC50 | IC50 [1] | SMILES |
| --- | --- | --- |
| 12.5 nM | – | CC(C)(C)NC(=O)c1ccccc1C[C@@H](O)[C@H](Cc1ccccc1)NC(=O)[C@H](CC(N)=O)NC(=O)c1ccccc1 [Example 28, [1S-(1R*, 4R*, 5S*)]-N-(1-(2-amino-2-oxoethyl)-2-oxo-3-aza-4-phenylmethyl-5-hydroxy-6-(2-(1-t-butylamino-1-oxomethyl)phenyl)hexyl)phenyl carboxamide] |
| 129 nM | – | CC(C)(C)NC(=O)c1ccccc1C[C@@H](O)[C@H](Cc1ccccc1)NC(=O)[C@H](CC(N)=O)NC(=O)c1ccccn1 [Example 29, [1S-(1R*, 4R*, 5S*)]-N-(1-(2-amino-2-oxoethyl)-2-oxo-3-aza-4-phenylmethyl-5-hydroxy-6-(2-(1-t-butylamino-1-oxomethyl)phenyl)hexyl)-2-pyridyl carboxamide] |
| 11.8 nM | – | CC(C)(C)NC(=O)c1ccccc1C[C@@H](O)[C@H](Cc1ccccc1)NC(=O)[C@H](CC(N)=O)NC(=O)c1cc2ccccc2cn1 [Example 30, [1S-(1R*, 4R*, 5S*)]-N-(1-(2-amino-2-oxoethyl)-2-oxo-3-aza-4-phenylmethyl-5-hydroxy-6-(2-(1-t-butylamino-1-oxomethyl)phenyl)hexyl)-3-isoquinolinyl carboxamide] |
| 11.4 nM | – | CC(C)(C)NC(=O)c1ccccc1C[C@@H](O)[C@H](Cc1ccccc1)NC(=O)[C@H](CC(N)=O)NC(=O)Cc1ccc2ccccc2c1 [Example 31, [1S-(1R*, 4R*, 5S*)]-N-(1-(2-amino-2-oxoethyl)-2-oxo-3-aza-4-phenylmethyl-5-hydroxy-6-(2-(1-t-butylamino-1-oxomethyl)phenyl)hexyl)-2-naphthyl acetamide] |
| 3.75 nM | – | CC(C)(C)NC(=O)c1ccccc1C[C@@H](O)[C@H](Cc1ccccc1)NC(=O)[C@H](CC(N)=O)NC(=O)COc1ccc2ccccc2n1 [Example 32, [1S-(1R*, 4R*, 5S*)]-N-(1-(2-amino-2-oxoethyl)-2-oxo-3-aza-4-phenylmethyl-5-hydroxy-6-(2-(1-t-butylamino-1-oxomethyl)phenyl)hexyl)-2-quinolinoxy acetamide] |
| – | 7.55 nM | CC(C)[C@H](NC(=O)c1cnc2ccccc2n1)C(=O)N[C@@H](Cc1ccccc1)[C@H](O)Cc1ccccc1C(=O)NC(C)(C)C [Example 34, [1S-(1R*, 4R*, 5S*)]-N-(1-(1-methylethyl)-2-oxo-3-aza-4-phenylmethyl-5-hydroxy-6-(2-(1-t-butylamino-1-oxomethyl)phenyl)hexyl)-2-quinoxalinyl acetamide] |
| – | 131 nM | CC(C)[C@H](NC(=O)c1ccc2ccccc2c1)C(=O)N[C@@H](Cc1ccccc1)[C@H](O)Cc1ccccc1C(=O)NC(C)(C)C [Example 35] |
| 1.21 nM | – | CCC(C)[C@H](NC(=O)OCc1ccc2ccccc2n1)C(=O)N[C@@H](Cc1ccccc1)[C@H](O)Cc1ccccc1C(=O)NC(C)(C)C (stereo partly drawn) [Example 38, [2R-(2R*, 3S*, 6S*)]-N-t-butyl-2-(2-hydroxy-3-phenylmethyl-4-aza-5-oxo-6-(1-methylpropyl)-6-(N-quinolin-2-ylmethoxycarbonylamino)hexyl)benzamide] |
| 5.06 nM | – | CCC(C)[C@H](NC(=O)N(C)Cc1ccc2ccccc2n1)C(=O)N[C@@H](Cc1ccccc1)[C@H](O)Cc1ccccc1C(=O)NC(C)(C)C (stereo partly drawn) [Example 39, [2R-(2R*, 3S*, 6S*)]-N-t-butyl-2-(2-hydroxy-3-phenylmethyl-4-aza-5-oxo-6-(1-methylpropyl)-7-aza-8-oxo-8-(N-methyl-N-quinolin-2-ylmethylamino)octyl)benzamide] |
| 46.7 nM | – | CC(C)(C)NC(=O)c1occc1C[C@@H](O)[C@H](Cc1ccccc1)NC(=O)[C@H](CC(N)=O)NC(=O)c1ccc2ccccc2n1 [Example 40, [1S-(1R*, 4R*, 5S*)]-N-(1-(2-amino-2-oxoethyl)-2-oxo-3-aza-4-phenylmethyl-5-hydroxy-6-(2-(1-t-butylamino-1-oxomethyl)fur-3-yl)hexyl)-2-quinolinyl carboxamide] |
| 13 nM | – | CC(C)(C)NC(=O)c1sccc1C[C@@H](O)[C@H](Cc1ccccc1)NC(=O)[C@H](CC(N)=O)NC(=O)c1ccc2ccccc2n1 [Example 41, [1S-(1R*, 4R*. 5S*) ]-N-(1-(2-amino-2-oxoethyl)-2-oxo-3-aza-4-phenylmethyl-5-hydroxy-6-(2-(1-t-butylamino-1-oxomethyl)thien-3-yl)hexyl)-2-quinolinyl carboxamide] |
| 523 nM | – | CC(C)(C)NC(=O)c1oc2ccccc2c1C[C@@H](O)[C@H](Cc1ccccc1)NC(=O)[C@H](CC(N)=O)NC(=O)c1ccc2ccccc2n1 [Example 42, [1S-(1R*, 4R*, 5S*)]-N-(1-(2-amino-2-oxoethyl)-2-oxo-3-aza-4-phenylmethyl-5-hydroxy-6-(2-(1-t-butylamino-1-oxomethyl)benzofur-3-yl)hexyl)-2-quinolinyl carboxamide] |
| 2.13 nM | – | CC(C)(C)NC(=O)c1ccccc1C[C@@H](O)[C@H](Cc1ccccc1)NC(=O)[C@H](CC(=O)O)NC(=O)c1ccc2ccccc2n1 [Example 43, [1S-(1R*, 4R*, 5S*)]-N-(1-(2-hydroxy-2-oxoethyl)-2-oxo-3-aza-4-phenylmethyl-5-hydroxy-6-(2-(1-t-butylamino-1-oxomethyl)phenyl)hexyl)-2-quinolinyl carboxamide] |
| 2.08 nM | – | CC(C)(C)NC(=O)c1ccccc1C[C@@H](O)[C@H](Cc1ccccc1)NC(=O)[C@H](CCC(=O)O)NC(=O)c1ccc2ccccc2n1 [Example 44, [1S-(1R*, 4R*, 5S*)]-N-(1-(3-hydroxy-3-oxopropyl)-2-oxo-3-aza-4-phenylmethyl-5-hydroxy-6-(2-(1-t-butylamino-1-oxomethyl)phenyl)hexyl)-2-quinolinyl carboxamide] |
| 1.26 nM | – | CC(C)(C)NC(=O)c1ccccc1C[C@@H](O)[C@H](Cc1ccccc1)NC(=O)[C@H](CC(=O)NCc1ccccn1)NC(=O)c1ccc2ccccc2n1 [Example 45, [1S-[1R*, 4R*, 5S*)]-N-(1-(2-(N-2-pyridylmethyl)amino)-2-oxoethyl]-2-oxo-3-aza-4-phenylmethyl-5-hydroxy-6-(2-(1-t-butylamino-1-oxomethyl)phenyl)hexyl)-2quinolinyl carboxamide] |
| 1.88 nM | – | CC(C)(C)NC(=O)c1ccccc1C[C@@H](O)[C@H](Cc1ccccc1)NC(=O)[C@H](CC(=O)NCc1ncc[nH]1)NC(=O)c1ccc2ccccc2n1 [Example 46, [1S-(1R*, 4R*, 5S*)]-N-(1-(2-(N-2-imidazolylmethyl)amino)-2-oxoethyl)-2-oxo-3-aza-4-phenylmethyl-5-hydroxy-6-(2-(1-t-butylamino-1-oxomethyl)phenyl)hexyl)-2-quinolinyl carboxamide] |
| 1.16 nM | – | CC(C)(C)NC(=O)c1ccccc1C[C@@H](O)[C@H](Cc1ccccc1)NC(=O)[C@H](CC(=O)Nc1ccncc1)NC(=O)c1ccc2ccccc2n1 [Example 48, [1S-(1R*, 4R*, 5S*)]-N-(1-(2-(N-pyrid-4-yl)amino)-2-oxoethyl)-2-oxo-3-aza-4-phenylmethyl-5-hydroxy-6-(2-(1-t-butylamino-1-oxomethyl)phenyl)hexyl)-2-quinolinyl carboxamide] |
| 0.676 nM | – | CC(C)(C)NC(=O)c1ccccc1C[C@@H](O)[C@H](Cc1ccccc1)NC(=O)[C@H](CC(=O)NCc1nc2ccccc2[nH]1)NC(=O)c1ccc2ccccc2n1 [Example 49, [1S-(1R*, 4R*, 5S*)]-N-(1-(2-(N-2-benzimidazolylmethyl)amino)-2-oxoethyl)-2-oxo-3-aza-4-phenylmethyl-5-hydroxy-6-(2-(1-t-butylamino-1-oxomethyl)phenyl)hexyl)-2-quinolinyl carboxamide] |
